{"source": "ChEMBL document CHEMBL1136035", "about": "“New Rev-transport inhibitor with anti-HIV activity from Valerianae Radix” (2002)", "tested_on": "MT4", "experiment": "Antiviral activity was determined by measurement of HIV-p24 antigen production in the supernatants of the infected MT-4 cell cultures with acommercially available HIV-antigen kit.", "type": "functional, Homo sapiens", "data": [{"compound": "CC(=O)OCC1=CO[C@@H](OC(=O)CC(C)C)[C@H]2C1=C[C@H](OC(=O)CC(C)C)[C@]21CO1", "note": "[VALTRATE]", "values": [{"measurement": "Inhibition", "value": 44, "unit": "%"}]}]}
